What was measured:
velvetleaf (ABUTH) [1] = assay: Test 1 field trial, preemergence; assay type: in vivo, Abutilon theophrasti; design: scale not given here; conditions: g a.i./ha: Atrazine 1680, S-Metolachlor 1870
Source text: (§1) Corn seeds (hybrid ‘Pioneer 34N43’) were planted in mid spring season, 3.8 cm deep in a silt loam soil having 4.6% organic matter and a pH of 6. Plots were 10.7 m long by 1.5 m wide with rows spaced 76 cm apart. Seeds were spaced 18 cm apart within the rows. The field was managed using conventional tillage practices. […] Results are summarized in Table 1 and are the means of the three replicates. […] Colby's Equation (Colby, S. R. “Calculating Synergistic and Antagonistic Responses of Herbicide Combinations,” Weeds, 15(1), pp 20-22 (1967)) calculates the expected additive effect of herbicidal mixtures, and for two active ingredients is of the form:
(§2) Pa+b=Pa+Pb−(PaPb/100) • wherein Pa+b is the percentage effect of the mixture expected from additive contribution of the individual components, • Pa is the observed percentage effect of the first active ingredient at the same use rate as in the mixture, and • Pb is the observed percentage effect of the second active ingredient at the same use rate as in the mixture.

[2] = tested on: common lambsquarters (CHEAL); assay: Test 1 field trial, preemergence; assay type: in vivo, Chenopodium album; conditions: g a.i./ha: Atrazine 1680, S-Metolachlor 1870
Source text: as §1, §2

giant foxtail (SETFA) [3] = assay: Test 1 field trial, preemergence; assay type: in vivo, Setaria faberi; conditions: g a.i./ha: Atrazine 1680, S-Metolachlor 1870
Source text: as §1, §2

field pennycress (THLAR) = assay: Test 1 field trial, preemergence; assay type: in vivo, Thlaspi arvense; conditions: 28 DAA; g a.i./ha: Atrazine 1680; S-Metolachlor 1870
Source text: as §1, §2

corn (ZEAMD) [4] = assay: Test 5 field trial, postemergence; assay type: in vivo, Zea mays ssp. indentata; conditions: atrazine 1120, glufosinate 470 or glyphosate 1120 g a.i./ha alone
Source text: (§3) Corn seeds (hybrid ‘Pioneer 38H69’) were planted in mid spring season, 5.1 cm deep in a silty clay loam soil having 3% organic matter and a pH of 6.5. Plots were 9.1 m long by 3.0 m wide with rows spaced 76 cm apart. The field was managed using conventional tillage practices. […] All treatments included a surfactant except glufosinate treatments, both alone and in combination. […] Results are summarized in Table 5 and are the means of the three replicates.

velvetleaf (ABUTH) [5] = assay: Test 5 field trial, postemergence; assay type: in vivo, Abutilon theophrasti; conditions: atrazine 1120, glufosinate 470 or glyphosate 1120 g a.i./ha alone
Source text: as §3

corn (ZEAMD) [6] = assay: Test 6 field trial, postemergence; assay type: in vivo, Zea mays ssp. indentata; conditions: 1120 g a.i./ha
Source text: (§4) Corn seeds (hybrid ‘Pioneer 35Y62’) were planted in mid spring season, 3.8 cm deep in a silt loam soil having 4% organic matter and a pH of 5.8. Plots were 10.7 m long by 1.5 m wide with rows spaced 76 cm apart. Seeds were spaced 18 cm apart within the rows. The field was managed using conventional tillage practices. […] All treatments included a surfactant except glufosinate treatments, both alone and in combination. […] Results are summarized in Table 6 and are the means of the three replicates.

redroot pigweed (AMARE) [7] = assay: Test 6 field trial, postemergence; assay type: in vivo, Amaranthus retroflexus; conditions: 1120 g a.i./ha
Source text: as §4

giant foxtail (SETFA) [8] = assay: Test 6 field trial, postemergence; assay type: in vivo, Setaria faberi; conditions: 1120 g a.i./ha
Source text: as §4

redroot pigweed (AMARE) [9] = assay: Test 8 field trial, preemergence; assay type: in vivo, Amaranthus retroflexus; conditions: 56 DAA; g a.i./ha: Cpd 2 100, Atrazine 1680, S-Metolachlor 1870
Source text: (§5) Corn seeds (hybrid ‘Pioneer 31G96’) were planted in mid spring season, 3.8 cm deep in a clay loam soil having 2% organic matter and a pH of 6.6. Plots were 6.1 m long by 3.0 m wide with rows spaced 76 cm apart. Seeds were spaced 15 cm apart within the rows. The field was managed using conventional tillage practices. […] A few of the weed species could not be evaluated at every timing. […] Results are the means of the three replicates.

[10] = tested on: ivyleaf morningglory (IPOHE); assay: Test 8 field trial, preemergence; assay type: in vivo, Ipomoea hederacea; conditions: g a.i./ha: Cpd 2 100, Atrazine 1680, S-Metolachlor 1870
Source text: as §5

[11] = tested on: Pennsylvania smartweed (POLPY); assay: Test 8 field trial, preemergence; assay type: in vivo, Polygonum pensylvanicum
Source text: as §5

corn (ZEAMD) [12] = assay: Test 10 field trial, preemergence; assay type: in vivo, Zea mays ssp. indentata; conditions: 28 DAA; g a.i./ha: Cpd 2 100, Atrazine 1680, S-Metolachlor 1870
Source text: (§6) Corn seeds (hybrid ‘Pioneer 33P65 RR’) were planted in mid spring season, 2.5 cm deep in a silt loam soil. Plots were 9.1 m long by 3.0 m wide with rows spaced 76 cm apart. The field was managed using conventional tillage practices. […] Results are the means of the three replicates.

common waterhemp (AMATA) = assay: Test 10 field trial, preemergence; assay type: in vivo, Amaranthus tamariscinus; conditions: 28 DAA; g a.i./ha: Cpd 2 100, Atrazine 1680, S-Metolachlor 1870
Source text: as §6

common ragweed (AMBEL) = assay: Test 10 field trial, preemergence; assay type: in vivo, Ambrosia artemisiifolia; conditions: 28 DAA; g a.i./ha: Cpd 2 100, Atrazine 1680, S-Metolachlor 1870
Source text: as §6

goosegrass (ELEIN) = assay: Test 11 field trial, preemergence; assay type: in vivo, Eleusine indica
Source text: Corn seeds (hybrid ‘Pioneer 3041’) were planted in mid spring season, 5 cm deep in a clay soil having 2.6% organic matter and a pH of 5.6. Plots were 8 m long by 1.5 m wide with rows spaced 80 cm apart. Seeds were spaced 15 cm apart within the rows. The field was managed using conventional tillage practices. […] Treatments consisted of Compound 2 or
Goosegrass was not evaluated 16 or 91 days after application.

[13] = 29 DAA, g a.i./ha: Cpd 2 100, Atrazine 1680, S-Metolachlor 1870

SMILES | ABUTH Obs (velvetleaf (ABUTH) [1]; 28 DAA) | ABUTH Obs (velvetleaf (ABUTH) [1]; 56 DAA) | CHEAL Obs ([2]; 28 DAA) | CHEAL Obs ([2]; 56 DAA) | SETFA Obs (giant foxtail (SETFA) [3]; 28 DAA) | SETFA Obs (giant foxtail (SETFA) [3]; 56 DAA) | THLAR Obs (field pennycress (THLAR)) | ZEAMD Obs (corn (ZEAMD) [4]; 16 DAA) [%] | ZEAMD Obs (corn (ZEAMD) [4]; 31 DAA) [%] | ABUTH Obs (velvetleaf (ABUTH) [5]; 16 DAA) [%] | ABUTH Obs (velvetleaf (ABUTH) [5]; 31 DAA) [%] | ZEAMD Obs (corn (ZEAMD) [6]; 14 DAA) [%] | ZEAMD Obs (corn (ZEAMD) [6]; 28 DAA) [%] | AMARE Obs (redroot pigweed (AMARE) [7]; 14 DAA) [%] | AMARE Obs (redroot pigweed (AMARE) [7]; 28 DAA) [%] | SETFA Obs (giant foxtail (SETFA) [8]; 14 DAA) [%] | SETFA Obs (giant foxtail (SETFA) [8]; 28 DAA) [%] | AMARE Obs (redroot pigweed (AMARE) [9]) [%] | IPOHE Obs ([10]; 19 DAA) [%] | IPOHE Obs ([10]; 29 DAA) [%] | further results
CCNc1nc(Cl)nc(NC(C)C)n1 [Atrazine, atrazine, reference compound] | 75 | 0 | 100 | 100 | 93 | 0 | 93 | 0 | 0 | 40 | 13 | 0 | 0 | 100 | 100 | 0 | 0 | 100 | 45 | 100 | IPOHE Obs ([10]; 56 DAA): 95%; POLPY Obs [11, 13]: 100%; POLPY Obs ([11]; 56 DAA, g a.i./ha: Cpd 2 100, Atrazine 1680): 100%; ZEAMD Obs (corn (ZEAMD) [12]): 0%; AMATA Obs (common waterhemp (AMATA)): 83%; AMBEL Obs (common ragweed (AMBEL)): 95%; ELEIN Obs (goosegrass (ELEIN); 30 DAA, atrazine 1500 or metolachlor 2500 g a.i./ha alone): 95; ELEIN Obs (goosegrass (ELEIN); 44 DAA, atrazine 1500 or metolachlor 2500 g a.i./ha alone): 100; ELEIN Obs (goosegrass (ELEIN); 62 DAA, 1500 g a.i./ha, scale 0 to 100): 100
Nc1nc(C2CC2)nc(C(=O)O)c1Cl [Compound 1, 6-amino-5-chloro-2-cyclopropyl-4-pyrimidinecarboxylic acid] |  |  |  |  |  |  |  |  |  |  |  |  |  |  |  |  |  |  |  |  | ELEIN Obs (goosegrass (ELEIN); 30 DAA, Cpd 2/Cpd 1 at 62 g a.i./ha, alone or + atrazine 1500 or metolachlor 2500): 0; ELEIN Obs (goosegrass (ELEIN); 30 DAA, Cpd 2/Cpd 1 at 125 g a.i./ha, alone or + atrazine 1500 or metolachlor 2500): 20; ELEIN Obs (goosegrass (ELEIN); 44 DAA, 62 g a.i./ha, scale 0 to 100): 0; ELEIN Obs (goosegrass (ELEIN); 44 DAA, 125 g a.i./ha, scale 0 to 100): 0; ELEIN Obs (goosegrass (ELEIN); 62 DAA, 62 g a.i./ha, scale 0 to 100): 0; ELEIN Obs (goosegrass (ELEIN); 62 DAA, 125 g a.i./ha, scale 0 to 100): 0
O=C(O)CNCP(=O)(O)O [Glyphosate] |  |  |  |  |  |  |  | 0 | 0 | 84 | 84 | 0 | 0 | 100 | 100 | 100 | 100 |  |  |  | 
CCc1cccc(C)c1N(C(=O)CCl)[C@@H](C)COC [S-Metolachlor, S-metolachlor, reference compound] | 33 | 0 | 95 | 23 | 57 | 100 | 58 |  |  |  |  |  |  |  |  |  |  | 100 | 10 | 25 | IPOHE Obs ([10]; 56 DAA): 3%; POLPY Obs [11, 13]: 100%; ZEAMD Obs (corn (ZEAMD) [12]): 0%; AMATA Obs (common waterhemp (AMATA)): 70%; AMBEL Obs (common ragweed (AMBEL)): 20%

Source: patent US20100285959A1, “HERBICIDAL MIXTURES” (priority 2006, published 2010)
